Measured values as given in PubChem BioAssay (NCI).
“And” between values parts separate entries of the source, which are not always exact repeats. Equal entries are not always repeated.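 Compound exposure: 48 hours, 5 concentrations, 96-well plates. GI50: concentration for 50% inhibition of growth. At the TGI there is no net growth.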 Peptide text beside a SMILES is read from it. * marks the point of attachment. Boc = CC(C)(C)OC(=O)*

Columns and labels:
Test in all cases: DTP human tumour cell line panel, 48 h
UO-31 renal = tested on: UO-31 renal
MOLT-4 leukemia = tested on: MOLT-4 leukemia
RXF 393 renal = tested on: RXF 393 renal
HCT-116 colon = tested on: HCT-116 colon
SNB-75 CNS = tested on: SNB-75 CNS
SK-OV-3 ovarian = tested on: SK-OV-3 ovarian
M14 melanoma = tested on: M14 melanoma
SF-295 CNS = tested on: SF-295 CNS
HL-60(TB) leukemia = tested on: HL-60(TB) leukemia
HOP-62 NSCLC = tested on: HOP-62 NSCLC

Compound	TGI (UO-31 renal)	TGI (MOLT-4 leukemia) [µM]	TGI (RXF 393 renal) [µM]	TGI (HCT-116 colon)	TGI (SNB-75 CNS) [µM]	TGI (SK-OV-3 ovarian) [µM]	TGI (M14 melanoma)	TGI (SF-295 CNS) [µM]	TGI (HL-60(TB) leukemia) [µM]	TGI (HOP-62 NSCLC) [µM]	GI50 (UO-31 renal) [µM]	GI50 (MOLT-4 leukemia) [µM]	GI50 (HCT-116 colon) [µM]	GI50 (SNB-75 CNS) [µM]	GI50 (HL-60(TB) leukemia) [µM]	GI50 (HOP-62 NSCLC) [µM]	GI50 (M14 melanoma) [µM]
Cc1cccc(N2CCN(S(=O)(=O)c3ccc(Cl)cc3)C2=N)c1C	> 100 µM	> 100	> 100	> 100 µM	> 100	> 100	> 100 µM	> 100									
COCCCN1C(=O)C2c3[nH]c4ccccc4c3C3CCC(C(C)(C)C)CC3C2C1=O (stereo unspecified)	> 100 µM	70	51.3	38.6 µM	> 100	> 100	39 µM	56.3	54.5	52.2							
COc1ccc([C@@]23CCC(=O)C[C@@H]2N(C)CC3)cc1OC	> 100 µM	> 100	> 100		> 100	> 100	> 100 µM	> 100	> 100	> 100							
CC1=CC(c2ccccc2)n2c(nc3cc4ccccc4cc32)N1 (stereo unspecified)	> 100 µM	> 100	> 100	> 100 µM	> 100	> 100	> 100 µM	> 100	> 100								
O=C1N2CCc3c([nH]c4ccccc34)C23CC2CCCC12S3 (stereo unspecified)	> 50 µM	> 50	> 50	> 50 µM		> 50	> 50 µM	> 50	> 50	> 50							
CSCCC(NC(=O)C(CC(C)C)NC(=O)CNC(=O)OC(C)(C)C)C(=O)N(C)C (stereo not drawn) (Boc-Gly-Leu-Met-NMe2; configuration not given here)	> 100 µM	> 100	> 100	> 100 µM		> 100	> 100 µM	> 100	> 100								
COC1(OC)/C(=C(\N)C=O)NC(C)(C)N1O	> 100 µM	> 100	> 100	> 100 µM	> 100		> 100 µM	> 100	55.9	> 100							
O=C(CCN1CCCCC1CO)Nc1ccc2c(c1)C(=O)c1ccc(NC(=O)CCN3CCCCC3CO)cc1C2=O (stereo unspecified)	26.7 µM	35.7	7.45	19.6 µM		46.2	22.4 µM	62.6	29.8	64.2							
c1csc(-c2ccc(-c3ccc(-c4cccs4)s3)s2)c1	> 100 µM	> 100	> 100	> 100 µM	> 100	> 100	> 100 µM	> 100	> 100	> 100							
COc1ccc(CC2C(=O)NC(C)C(=O)N(C)C3Cc4ccc(cc4)Oc4cc(ccc4O)CC(C(=O)NC(C)C(=O)NC(C)C(=O)N2C)N(C)C3=O)cc1 (stereo unspecified)	5.75 µM and 4.16 µM		0.0731	0.112 µM and 0.0554 µM	0.0214		0.518 µM and 0.36 µM				0.24	< 0.0001	< 0.0001	< 0.0001	< 0.0001	0.00218	0.0107
CSC1(SC)CCCCCCCCCCC1	> 100 µM	> 100	> 100	31.4 µM		> 100	> 100 µM	97.1	> 100	> 100							
Cc1ccc(S(=O)(=O)NC(=O)NS(=O)(=O)O)cc1	> 100 µM	> 100	> 100	> 100 µM	> 100	> 100	> 100 µM		> 100	> 100							
C=CC1(CCC(Br)C(C)(C)Cl)CO1 (stereo unspecified)	> 10 µM	> 10		> 10 µM	> 10	> 10	> 10 µM	> 10		> 10							
CSc1s[s+]c(SC)c1-c1ccccc1	46.3 µM	> 100	30.4	29.5 µM		38	30.8 µM	36.9	60.6	29.4							
CCOC(=O)Cc1nc2c(=O)[nH]cnc2n1C1OC(COC(C)=O)C(OC(C)=O)C1OC(C)=O (stereo unspecified)	> 100 µM	> 100	> 100	> 100 µM	> 100	> 100	> 100 µM	> 100	> 100	> 100							
CC(=O)Nc1ncc2c(n1)-c1ccccc1OC2	> 100 µM	> 100	> 100	> 100 µM	> 100	> 100	> 100 µM	> 100	> 100								
COC(=O)c1cc2c3c(c(C(C)=O)c(OC)c2[nH]1)NCC3	> 50 µM	> 50	> 50	> 50 µM	> 50	> 50	> 50 µM	> 50	> 50	> 50							
C=C1C(=O)C[C@@]23CCC[C@@]12CC(O)C3 (stereo partly specified)	> 94.6 µM	> 80.7	33.8	44.5 µM	48.7	67.5		> 100	49.9	> 100							
CC(=O)OCC1OC(n2c3c(c(-c4ccco4)c(C#N)c2=S)CCCC3)C(OC(C)=O)C(OC(C)=O)C1OC(C)=O (stereo unspecified)	> 31.6 µM	> 31.6		> 31.6 µM	24.6		> 100 µM	21.5		21.8							
CNC(=O)OCC1=C(COC(=O)NC)CN(c2ccccc2)C1	> 100 µM	> 100	> 100	> 100 µM	> 100	> 100	> 100 µM	> 100		> 100							
C[C@@H](C[C@@H](O)[C@H](O)C(C)(C)O)[C@H]1CC=C2[C@]3(C)[C@H](O)C[C@H]4C(C)(C)[C@H](O)CC[C@]4(C)[C@H]3CC[C@@]21C	28.7 µM	29.6	35.7	34.7 µM	39.1		28.6 µM	28.6	40.5	28.5							
